Assay results reported in BindingDB's records for patent US20260008775 (Genentech, 2026).

Target: 3-beta-hydroxysteroid-Delta(8),Delta(7)-isomerase (Homo sapiens, UniProt Q15125)
Assay: Determination of Binding Affinity to EBP-7-Dehydrocholesterol Reductase
Method: The plates were sealed and incubated at 4° C. for 3 hrs. Then, the plates were washed with ice-cold assay buffer 3 times. […] Following this, the plate was centrifuged at 1000 rpm for 30 secs. The plate was then sealed and agitated at 600 rpm at 22° C. for 5 min, and then incubated at 22° C. for 3 hrs. The incubation was stopped by transferring the binding solution to the pre-treated UniFilter-96 GF/B plate, vacuum filtrated, and then washed four times with ice-cold assay buffer. Following this, the plates were dried at 37° C. for 45 min. The plates were then sealed at the bottom. 40 µl/well of scintillation cocktail was added to the plates.

3-beta-hydroxysteroid-Delta(8),Delta(7)-isomerase, sequence (Q15125 whole entry): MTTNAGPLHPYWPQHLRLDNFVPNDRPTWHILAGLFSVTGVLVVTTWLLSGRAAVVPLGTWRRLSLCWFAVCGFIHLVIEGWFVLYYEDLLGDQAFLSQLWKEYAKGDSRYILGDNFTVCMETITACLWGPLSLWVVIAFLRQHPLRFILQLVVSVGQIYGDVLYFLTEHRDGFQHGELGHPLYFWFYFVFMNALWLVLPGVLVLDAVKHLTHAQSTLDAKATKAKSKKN

CC(C)n1nc(-c2cncc(C(F)(F)F)c2)cc1[C@H]1[C@@H]2C[C@@H](N3CCOCC3)C[C@@H]21 [US20260008775, Example Table4.2]
Ki: 188 nM
